The values that follow come from patent US5436243A, “Aminoanthraquinone derivatives to combat multidrug resistance” (priority 1993, dated 1995).

Each structure is given as a SMILES string.

This data set in a line: in vitro. The conditions noted are these: human. The procedure: Myelosuppression is often a dose limiting side effect of chemotherapeutic agents. […] The toxicities to human granulocyte-macrophage progenitors (CFU-GM) of 1b, 1c, and VLB was assessed by measuring inhibition of CFU-GM proliferation in cultures continuously exposed to each agent alone and compared to the toxicities to sensitive and resistant MCF7 in tumor cell clonogenic assays.
METHOD: The CFLI-GM assay measures clonal proliferation of granulocyte/macrophage precursors in semisolid agar cultures. The progeny of the granulocyte/macrophage precursors remain in proximity of the progenitor cells and form colonies. Colonies which contain greater than 40 cells after 10-12 days of culture are counted using an inverted phase contrast microscope. The tumor cell clonogenic assays measure clonal proliferation of tumor cells. In this assay, 300-500 cells are plated in 10 cm^2 wells, allowed to adhere overnight, and are treated the following day. Tumor cell colonies were counted after 10-12 days of culture. The times of exposure in these experiments are similar; however, the concentrations of FCS are 20% in the CFU-GM assay and 10% in the tumor cell clonogenic assays. The IC50's are calculated as described above for the MTT proliferation assays. (See Example 4).
To facilitate this comparison, a CFLI-GM toxicity index was calculated by dividing the CFU-GM IC50 by the respective tumor cell clonogenic IC50's in sensitive and resistant cells.

For the molecule `O=C1c2ccccc2C(=O)c2c(NCCCN3CCOCC3)ccc(NCCCN3CCOCC3)c21` [Compound 1c, 1,4-bis-[[3'(4-morpholino)propyl]amino]anthraquinone], the selectivity ratio (CFU-GM Toxicity Index (CFU-GM IC50 / Tumor Cell Clonogenic IC50)) worked out at 9.8; the selectivity ratio (cfu-gm vs mcf7, lower sensitivity of CFU-GM than drug sensitive (WT) and MDR cancer cell lines) lay in the range of 10 to 20.
